Measurements published in patent US8350085B2, “Cocrystallization” (New Form Pharmaceuticals Inc., priority 2003, dated 2013).
Like-named read-outs stand apart in the source and are kept apart here.

[1] = compared with crystals of fluoxetine HCl

CNCCC(Oc1ccc(C(F)(F)F)cc1)c1ccccc1.Cl.O=C(O)c1ccccc1 (stereo not drawn) [fluoxetine HCl:benzoic acid, fluoxetine HCl:benzoic acid (1:1)]
dissolution rate (Example 1 cocrystal): relatively slow
dissolution rate [1]: lower dissolution rate

CNCCC(Oc1ccc(C(F)(F)F)cc1)c1ccccc1.Cl.O=C(O)CCC(=O)O (stereo not drawn) [fluoxetine HCl:succinic acid, fluoxetine HCl:succinic acid (2:1)]
dissolution rate [1]: faster dissolution rate
